Biological target: human PDE4B1 (Homo sapiens (Human), UniProt Q07343)
Experiment: cAMP HTRF assay to determine the activity of hPDE4B1
Assay type: biochemical
Conditions: IC50 inhibition of PDE4B; human recombinant PDE4B1, cAMP HTRF assay
Protocol: Biological Testing cAMP HTRF® Assay to Determine the Activity of hPDE4B1
The inhibiting effect of the compounds on the enzyme activity of human PDE4B1 was measured by the quantification of 5′-adenosine monophosphate (5′-AMP), which is formed from 3′,5′-cyclic adenosine monophosphate (cAMP). Human recombinant enzyme, expressed in Sf9 cells, and the HTRF (homogeneous time-resolved fluorescence) detection method were used in the assay.
The test compound or water (control) was mixed with the human recombinant PDE4B1 enzyme (4.8 U) in a buffer consisting of 44.4 mM tris-HCl, 5.28 mM MgCl2, 2.64 mM DTT and 0.044% Tween 20 (pH 7.8). After adding the cAMP enzyme substrate (final concentration 40 nM), the mixture was incubated for 30 minutes at room temperature. Then a fluorescence acceptor (Dye2 marked with cAMP), a fluorescence donor (anti-cAMP antibody marked with a europium cryptate) and the non-specific phosphodiesterase inhibitor IBMX (3-isobutyl-1-methylxanthine; final concentration 1 mM) were added. After 60 min the fluorescence transfer, which correlates with the amount of remaining cAMP, was measured with a microplate reader (Rubystar, BMG) at λex=337 nm, λem=620 nm and λem=665 nm. The enzyme activity was calculated from the quotient formed from the measured signal at 665 nm and that at 620 nm. The result was expressed as the percentage inhibition of enzyme activity of the control (without PDE4 inhibitor). The enzyme was omitted for measurement of the basal control.
[N. Saldou et al., Comparison of recombinant human PDE4 isoforms: interaction with substrate and inhibitors, Cell. Signal. Vol. 10, No. 6, 427-440, 1998]. Several compounds according to the invention are tested in the above-described assay.

Sequence of human PDE4B1 (Q07343 whole entry): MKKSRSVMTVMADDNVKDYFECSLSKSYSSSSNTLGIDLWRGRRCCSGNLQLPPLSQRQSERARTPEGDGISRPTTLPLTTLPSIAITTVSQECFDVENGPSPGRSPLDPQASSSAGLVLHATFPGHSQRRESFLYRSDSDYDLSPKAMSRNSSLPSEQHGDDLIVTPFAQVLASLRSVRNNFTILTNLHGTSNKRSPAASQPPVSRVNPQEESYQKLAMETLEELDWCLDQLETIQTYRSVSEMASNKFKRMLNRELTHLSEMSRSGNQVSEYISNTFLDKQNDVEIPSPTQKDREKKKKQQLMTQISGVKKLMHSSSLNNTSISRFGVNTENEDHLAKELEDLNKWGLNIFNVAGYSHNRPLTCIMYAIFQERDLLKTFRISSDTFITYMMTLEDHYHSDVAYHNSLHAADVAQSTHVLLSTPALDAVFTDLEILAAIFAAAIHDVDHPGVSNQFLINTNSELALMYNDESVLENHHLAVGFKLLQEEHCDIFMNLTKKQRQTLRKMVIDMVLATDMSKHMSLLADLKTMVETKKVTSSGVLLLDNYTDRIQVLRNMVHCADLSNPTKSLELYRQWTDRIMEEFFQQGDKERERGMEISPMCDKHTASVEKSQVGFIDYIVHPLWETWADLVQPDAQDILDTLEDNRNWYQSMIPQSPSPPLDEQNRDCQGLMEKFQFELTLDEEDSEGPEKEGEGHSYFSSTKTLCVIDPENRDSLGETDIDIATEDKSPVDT

N#Cc1cccc(F)c1-c1cnc(N2CC3(CC3)c3ccc(C(=O)N4CCOCC4)cc32)nc1 [Compound 20, 3-Fluoro-2-[2-[6-(morpholine-4-carbonyl)-spiro[1,2-dihydro-indole-3,1′-cyclopropane]-1-yl]-pyrimidin-5-yl]-benzonitrile]
IC50: 0.1 to 1 µM

N[C@@H]1CCN(C(=O)c2ccc3c(c2)N(c2ncc(-c4cccc(F)c4F)cn2)CC32CC2)C1 [Compound 114, [(3R)-3-Amino-pyrrolidin-1-yl]-[1-[5-(2,3-difluoro-phenyl)-pyrimidin-2-yl]-spiro[1,2-dihydro-indole-3,1′-cyclopropane]-6-yl]-methanone]
IC50: < 0.1 µM

Cc1cccc(F)c1-c1cnc(N2CC3(CC3)c3ccc(C(=O)N4CCOCC4)cc32)nc1 [Compound 69, [1-[5-(2-Fluoro-6-methyl-phenyl)-pyrimidin-2-yl]-spiro[1,2-dihydro-indole-3,1′-cyclopropane]-6-yl]-morpholin-4-yl-methanone]
IC50: 0.1 to 1 µM

O=C(c1ccc2c(c1)N(c1ncc(-c3ccc(F)cc3F)cn1)CC21CC1)N1CCNCC1 [Compound 71, [1-[5-(2,4-Difluoro-phenyl)-pyrimidin-2-yl]-spiro[1,2-dihydro-indole-3,1′-cyclopropane]-6-yl]-piperazin-1-yl-methanone]
IC50: 0.1 to 1 µM

O=C(c1ccc2c(c1)N(c1ncc(-c3ccccc3F)cn1)CC21CC1)N1CCCC2(COC2)C1 [Compound 79, [1-[5-(2-Fluorophenyl)-pyrimidin-2-yl]-spiro[1,2-dihydro-indole-3,1′-cyclopropane]-6-yl]-(2-oxa-8-azaspiro[3.5]nonan-8-yl)-methanone]
IC50: 1 to 10 µM

C[C@@H]1CN(C(=O)c2ccc3c(c2)N(c2ncc(-c4ccccc4F)cn2)CC32CC2)C[C@H](C)O1 [Compound 104, [(2R,6S)-2,6-dimethyl-morpholin-4-yl]-[1-[5-(2-fluorophenyl)-pyrimidin-2-yl]-spiro[1,2-dihydro-indole-3,1′-cyclopropane]-6-yl]-methanone]
IC50: < 0.1 µM

O=C(c1ccc2c(c1)N(c1ncc(-c3cc(F)cc(F)c3)cn1)CC21CC1)N1CCOCC1 [Compound 50, [1-[5-(3,5-Difluoro-phenyl)-pyrimidin-2-yl]-spiro[1,2-dihydro-indole-3,1′-cyclopropane]-6-yl]-morpholin-4-ylmethanone]
IC50: < 0.1 µM

O=C(NCC1CCOCC1)c1ccc2c(c1)N(c1ncc(-c3ccccc3F)cn1)CC21CC1 [Compound 82, 1-[5-(2-Fluorophenyl)-pyrimidin-2-yl]-N-(tetrahydro-pyran-4-yl-methyl)-spiro[1,2-dihydro-indole-3,1′-cyclopropane]-6-carboxylic acid amide]
IC50: 1 to 10 µM

O=C(c1ccc2c(c1)N(c1ncc(-c3ccccc3F)cn1)CC21CC1)N1CCN(CCO)CC1 [Compound 34, [1-[5-(2-Fluorophenyl)-pyrimidin-2-yl]-spiro[1,2-dihydro-indole-3,1′-cyclopropane]-6-yl]-[4-(2-hydroxy-ethyl)-piperazin-1-yl]-methanone]
IC50: < 0.1 µM

CN1CCN(C(=O)c2ccc3c(c2)N(c2ncc(-c4ccccc4F)cn2)CC32CC2)CC1=O [Compound 38, 4-[1-[5-(2-Fluorophenyl)-pyrimidin-2-yl]spiro[1,2-dihydro-indole-3,1′-cyclopropane]-6-carbonyl]-1-methyl-piperazin-2-one]
IC50: < 0.1 µM

CN(C(=O)c1ccc2c(c1)N(c1ncc(-c3ccccc3F)cn1)CC21CC1)C1CC1 [Compound 46, N-Cyclopropyl-1-[5-(2-fluorophenyl)-pyrimidin-2-yl]-N-methyl-spiro[1,2-dihydro-indole-3,1′-cyclopropane]-6-carboxylic acid amide]
IC50: 0.1 to 1 µM

O=C(c1ccc2c(c1)N(c1ncc(-c3ccccc3F)cn1)CC21CC1)N1CCSCC1 [Compound 93, [1-[5-(2-Fluorophenyl)-pyrimidin-2-yl]-spiro[1,2-dihydro-indole-3,1′-cyclopropane]-6-yl]thiomorpholin-4-yl-methanone]
IC50: < 0.1 µM

Morpholin-4-yl-[1-(5-pyridazin-4-yl-pyrimidin-2-yl)-spiro[1,2-dihydro-indole-3,1′-cyclopropane]-6-yl]-methanone [Compound 200]
IC50: < 0.1 µM

CN[C@@H]1CCN(C(=O)c2ccc3c(c2)N(c2ncc(-c4ccccc4F)cn2)CC32CC2)C1 [Compound 121, [1-[5-(2-Fluorophenyl)-pyrimidin-2-yl]-spiro[1,2-dihydro-indole-3,1′-cyclopropane]-6-yl]-[(3R)-3-methylamino-pyrrolidin-1-yl]-methanone]
IC50: < 0.1 µM

Cc1cc(-c2cnc(N3CC4(CC4)c4ccc(C(=O)N5CCOCC5)cc43)nc2)sn1 [Compound 155, [1-[5-(3-Methyl-isothiazol-5-yl)-pyrimidin-2-yl]-spiro[1,2-dihydro-indole-3,1′-cyclopropane]-6-yl]-morpholin-4-yl-methanone]
IC50: < 0.1 µM

CN(C(=O)c1ccc2c(c1)N(c1ncc(-c3ccccc3F)cn1)CC21CC1)c1ccncc1 [Compound 88, 1-[5-(2-Fluorophenyl)-pyrimidin-2-yl]-N-methyl-N-pyridin-4-yl-spiro[1,2-dihydro-indole-3,1′-cyclopropane]-6-carboxylic acid amide]
IC50: 0.1 to 1 µM

CN(CCO)C(=O)c1ccc2c(c1)N(c1ncc(-c3cccc(F)c3)cn1)CC21CC1 [Compound 129, 1-[5-(3-Fluorophenyl)-pyrimidin-2-yl]-N-(2-hydroxy-ethyl)-N-methyl-spiro[1,2-dihydro-indole-3,1′-cyclopropane]-6-carboxylic acid amide]
IC50: < 0.1 µM

CN(C)C(=O)c1ccc2c(c1)N(c1ncc(-c3cccc(F)c3)cn1)CC21CC1 [Compound 125, 1-[5-(3-Fluorophenyl)-pyrimidin-2-yl]-N,N-dimethyl-spiro[1,2-dihydro-indole-3,1′-cyclopropane]-6-carboxylic acid amide]
IC50: < 0.1 µM

O=C(c1ccc2c(c1)N(c1ncc(-c3ccccc3F)cn1)CC21CC1)N1CCC(CO)CC1 [Compound 98, [1-[5-(2-Fluorophenyl)-pyrimidin-2-yl]-spiro[1,2-dihydro-indole-3,1′-cyclopropane]-6-yl]-[4-(hydroxymethyl)-piperidin-1-yl]-methanone]
IC50: 0.1 to 1 µM

CC(=O)N1CCNC(C(=O)c2ccc3c(c2)N(c2ncc(-c4ccccc4F)cn2)CC32CC2)C1 (centres unmarked) [Compound 85, 1-[5-[1-[5-(2-Fluorophenyl)-pyrimidin-2-yl]-spiro[1,2-dihydro-indole-3,1′-cyclopropane]-6-carbonyl]-piperazin-1-yl]-ethanone]
IC50: < 0.1 µM

O=C(c1ccc2c(c1)N(c1ncc(-c3ccc(F)cn3)cn1)CC21CC1)N1CCOCC1 [Compound 165, [1-[5-(5-Fluoro-pyridin-2-yl)-pyrimidin-2-yl]-spiro[1,2-dihydro-indole-3,1′-cyclopropane]-6-yl]-morpholin-4-yl-methanone]
IC50: < 0.1 µM

O=C(c1ccc2c(c1)N(c1ncc(-c3cc(C(F)(F)F)ccc3F)cn1)CC21CC1)N1CCOCC1 [Compound 23, [1-[5-[2-Fluoro-5-(trifluoromethyl)-phenyl]-pyrimidin-2-yl]-spiro[1,2-dihydro-indole-3,1′-cyclopropane]-6-yl]-morpholin-4-yl-methanone]
IC50: < 0.1 µM

O=C(c1ccc2c(c1)N(c1ncc(-c3ccccc3F)cn1)CC21CC1)N1CCC1 [Compound 89, (Azetidin-1-yl)-[1-[5-(2-fluorophenyl)-pyrimidin-2-yl]-spiro[1,2-dihydro-indole-3,1′-cyclopropane]-6-yl]-methanone]
IC50: 0.1 to 1 µM

O=C(c1ccc2c(c1)N(c1ncc(-c3cncnc3)cn1)CC21CC1)N1CCOCC1 [Compound 162, Morpholin-4-yl-[1-(5-pyrimidin-5-yl-pyrimidin-2-yl)-spiro[1,2-dihydro-indole-3,1′-cyclopropane]-6-yl]-methanone]
IC50: < 0.1 µM

O=C(c1ccc2c(c1)N(c1ncc(Cc3ccccc3F)cn1)CC21CC1)N1CCOCC1 [Compound 178, [1-[5-[(2-Fluorophenyl)-methyl]-pyrimidin-2-yl]-spiro[1,2-dihydro-indole-3,1′-cyclopropane]-6-yl]-morpholin-4-yl-methanone]
IC50: 0.1 to 1 µM

O=C(c1ccc2c(c1)N(c1ncc(-c3ccccc3F)cn1)CC21CC1)N1CC2(CCNC2)C1 [Compound 111]
IC50: 1 to 10 µM

O=C(c1ccc2c(c1)N(c1ncc(-c3cncc(F)c3)cn1)CC21CC1)N1CCOCC1 [Compound 157, [1-[5-(5-Fluoro-pyridin-3-yl)-pyrimidin-2-yl]-spiro[1,2-dihydro-indole-3,1′-cyclopropane]-6-yl]-morpholin-4-yl-methanone]
IC50: < 0.1 µM

N#Cc1ccsc1-c1cnc(N2CC3(CC3)c3ccc(C(=O)N4CCOCC4)cc32)nc1 [Compound 153, 2-[2-[6-(Morpholine-4-carbonyl)-spiro[1,2-dihydro-indole-3,1′-cyclopropane]-1-yl]-pyrimidin-5-yl]-thiophene-3-carbonitrile]
IC50: < 0.1 µM

O=C(c1ccc2c(c1)N(c1ncc(-c3ccccn3)cn1)CC21CC1)N1CCOCC1 [Compound 150, Moprholin-4-yl-[1-(5-pyridin-2-yl-pyrimidin-2-yl)-spiro[1,2-dihydro-indole-3,1′-cyclopropane]-6-yl]-methanone]
IC50: < 0.1 µM

From patent US10189854B2, “Substituted pyrimidine compounds” (Grünenthal GmbH, priority 2014, dated 2019)
